Experimental data from ChEMBL document CHEMBL1201862, “PubChem BioAssay data set” (2004).
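Method: 48-hour compound exposure of cells in 96-well plates, five concentrations, linear interpolation of endpoints. GI50 is the concentration that inhibits growth by half.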 Activity calls are given as the source filed them. No stated cut-off is given here; in the data, active = GI50 up to about 1.1 µM and inactive = higher.

How the values were obtained:
Assay in all cases: NCI-60 cell line screen, 48 h
[1] = system: TK-10
[2] = system: MDA-N
[3] = system: SF-268
[4] = system: SK-OV-3
[5] = system: M14
[6] = system: T47D
[7] = system: UO-31
[8] = system: OVCAR-5
[9] = system: OVCAR-3
[10] = system: SNB-19
[11] = system: NCI-H23
[12] = system: A549
[13] = system: HT-29
[14] = system: HCT-116
[15] = system: OVCAR-4
[16] = system: CCRF-CEM
[17] = system: SK-MEL-5
[18] = system: UACC-257
[19] = system: SNB-75
[20] = system: PC-3
[21] = system: HOP-92
[22] = system: NCI-H226
[23] = system: SK-MEL-28
[24] = system: MCF7
[25] = system: NCI-H522
[26] = system: SN12C
[27] = system: K562
[28] = system: 786-0
[29] = system: EKVX
[30] = system: MDA-MB-435
[31] = system: HCC 2998
[32] = system: SW-620
[33] = system: NCI-H460
[34] = system: A498
[35] = system: ACHN
[36] = system: DU-145
[37] = system: COLO 205
[38] = system: BT-549
[39] = system: LOX IMVI
[40] = system: SK-MEL-2
[41] = system: SF-295
[42] = system: HL-60
[43] = system: RPMI-8226
[44] = system: HOP-62
[45] = system: MDA-MB-231
[46] = system: IGROV-1
[47] = system: CAKI-1
[48] = system: OVCAR-8
[49] = system: MOLT-4
[50] = system: Malme-3M
[51] = system: UACC-62
[52] = system: SF-539
[53] = system: RXF 393
[54] = system: U-251
[55] = system: KM12
[56] = system: Hs-578T
[57] = system: HCT-15
[58] = system: NCI/ADR-RES

Compound: Nc1nc(F)nc2c1ncn2C1OC(CO)C(O)C1O (stereo not drawn)
- GI50 [1]: > 100 µM (inactive)
- GI50 [2]: > 58.6 µM (inactive)
- GI50 [3]: > 61.7 µM (inactive)
- GI50 [4]: 23.2 µM (inactive)
- GI50 [5]: 8.53 µM (inactive)
- GI50 [6]: > 70 µM (inactive)
- GI50 [7]: 11.1 µM (inactive)
- GI50 [8]: > 100 µM (inactive)
- GI50 [9]: > 100 µM (inactive)
- GI50 [10]: 19.2 µM (inactive)
- GI50 [11]: 13.3 µM (inactive)
- GI50 [12]: 43 µM (inactive)
- GI50 [13]: > 100 µM (inactive)
- GI50 [14]: 39.5 µM (inactive)
- GI50 [15]: > 100 µM (inactive)
- GI50 [16]: 0.344 µM (active)
- GI50 [17]: 55.5 µM (inactive)
- GI50 [18]: > 90.8 µM (inactive)
- GI50 [19]: > 100 µM (inactive)
- GI50 [20]: 30.5 µM (inactive)
- GI50 [21]: 8.79 µM (inactive)
- GI50 [22]: > 100 µM (inactive)
- GI50 [23]: > 77.3 µM (inactive)
- GI50 [24]: 57.7 µM (inactive)
- GI50 [25]: 32.7 µM (inactive)
- GI50 [26]: 3.89 µM (inactive)
- GI50 [27]: > 76.6 µM (inactive)
- GI50 [28]: 38.1 µM (inactive)
- GI50 [29]: > 100 µM (inactive)
- GI50 [30]: 35.7 µM (inactive)
- GI50 [31]: 49.3 µM (inactive)
- GI50 [32]: 69 µM (inactive)
- GI50 [33]: 73.1 µM (inactive)
- GI50 [34]: > 60.3 µM (inactive)
- GI50 [35]: 34 µM (inactive)
- GI50 [36]: 15.7 µM (inactive)
- GI50 [37]: 53.1 µM (inactive)
- GI50 [38]: 57.5 µM (inactive)
- GI50 [39]: 48.2 µM (inactive)
- GI50 [40]: > 100 µM (inactive)
- GI50 [41]: > 100 µM (inactive)
- GI50 [42]: 42.5 µM (inactive)
- GI50 [43]: > 100 µM (inactive)
- GI50 [44]: 5.12 µM (inactive)
- GI50 [45]: > 100 µM (inactive)
- GI50 [46]: > 100 µM (inactive)
- GI50 [47]: 34.6 µM (inactive)
- GI50 [48]: 4.61 µM (inactive)
- GI50 [49]: 1.14 µM (inactive)
- GI50 [50]: 32.5 µM (inactive)
- GI50 [51]: 58.6 µM (inactive)
- GI50 [52]: > 100 µM (inactive)
- GI50 [53]: > 81.8 µM (inactive)
- GI50 [54]: > 81.5 µM (inactive)
- GI50 [55]: > 100 µM (inactive)
- GI50 [56]: > 100 µM (inactive)
- GI50 [57]: > 75 µM
- GI50 [58]: 3.78 µM (inactive)
